Converted amounts (≈) assume the structure as drawn. Read-outs that look alike come from different tables or passages of the source. A value given as a limit tells only on which side of the number the result lay.

What all share (format): cell-based
One assay relates to Cryptococcus neoformans. Put plainly: Antifungal activity, paper disc zone of inhibition. The settings on record: 37° C., 2 days, agar, 8 mm paper disc, 2 mg/ml solution; for zone of inhibition at 2000 µg/mL: Cryptococcus neoformans, 48 h. On the procedure: For the antifungal activity data given in Table 1, Cryptococcus neoformans is used as the test microorganism and incubated at 37° C. for 2 days in an agar medium with a paper disc (8 mm in diameter) immersed in an aqueous 2 mg/ml solution of a test compound and air-dried as placed on said medium, and the zone of inhibition is measured. The judgement criteria are as follows: "-" means less than 9 mm in inhibition zone diameter, "±" means 9-11 mm, "+" means 12-20 mm, and "++" means more than 20 mm.

The next assay has as its system Tetrahymena pyriformis W. Put plainly: Antiprotozoal activity, MIC by serial broth dilution technique. The settings on record: 28° C., 44-48 hours, tryptose peptone medium, pH 7.0; for MIC: Tetrahymena pyriformis. For orientation: In broth dilution the organism is exposed to a series of concentrations in liquid medium.
The next assay has as its system Brewer's yeast. The experiment in a line: Antifungal activity, MIC by serial dilution in agar.
In the next assay the test system is Cochliobolus miyabeanus. Described as above. Particulars: Bipolaris oryzae.
The subject of a further assay is Pyricularia oryzae. Put plainly: microbe, parasite or virus in culture.
Another assay deals with Penicillium. The experiment in a line: Antifungal activity, MIC by serial dilution in agar. The settings on record: 1% glucose bouillon agar. How it is done:
(§1) For the antifungal activity data shown in Table 2, various typical plant-disease-causing fungi are used as the test fungi and the minimum inhibitory concentration (MIC) are determined by the serial dilution technique using a 1% glucose bouillon agar medium.

The next assay deals with Red yeast. The description is as above. The settings on record: 1% glucose bouillon agar. On the procedure: as §1
The next assay deals with Botrytis cinerea. Described as above. Particulars: 1% glucose bouillon agar. On the procedure:
as §1

A further assay has as its system Gibberella fujikuroi. The description is as above. Particulars: Fusarium fujikuroi, 1% glucose bouillon agar. How it is done: as §1
The subject of another assay is Aspergillus. Described as above. Particulars: 1% glucose bouillon agar. On the procedure: as §1
For assay [1], the system named is mouse spontaneous myelolid leukemia M1 cells (resistant clone). The experiment in a line: Growth inhibition (GD50) of mouse leukemia M1 cells.
Assay [2] concerns human promyelocytic leukemia cells HL-60. The experiment in a line: Growth inhibition (GD50) of human promyelocytic leukemia HL-60 cells.
Assay [3] deals with Rauscher virus-induced promyelocytic leukemia cells R 453. Put plainly: Growth inhibition (GD50) of Rauscher virus-induced leukemia R 453 cells. The settings on record: Mus musculus.
In a further assay the test system is Leptosphaeria salvinii. The experiment in a line: Antifungal activity, MIC by serial dilution in agar. The settings on record: Nakataea oryzae.
The mark [4] stands for this setting: four successive population doublings of untreated cells, trypan blue, mean of four separate experiments.

“3-[8,11,14(Z,Z,Z)-Heptadecatrienylcarbamoyloxy]propyl 2-aminoethyl phosphate [Example 18]”: the “Cryptococcus neoformans Zone of inhibition” value in the assay with Cryptococcus neoformans is “+ (12-20 mm)”. Also, the “Tetrahymena pyriformis W MIC” value with Tetrahymena pyriformis W is 2 to 4 µg/mL.

As usually defined, the zone of inhibition is the extent of the growth-free halo in a diffusion test. A lower zone of inhibition goes with a weaker effect on the plate. The IC50 is the concentration that gives 50% inhibition. Low values mean inhibition by little substance, high ones a need for much substance. Turning to `CCCCCCCCCCCCCCCCCNC(=O)OCCCOP(=O)([O-])OCC[N+](C)(C)C` [Example 4, 3-(N-n-Heptadecylcarbamoyloxy)propyl 2-trimethylammonioethyl phosphate], the zone of inhibition at 2000 µg/mL in the assay on Cryptococcus neoformans lay in the range of 12 to 20 mm. Moreover, the MIC in the assay on Brewer's yeast is above 100 µg/mL; with Cochliobolus miyabeanus, above 100 µg/mL; in the assay on Pyricularia oryzae, 6.25 µg/mL; against Penicillium, above 100 µg/mL; against Red yeast it was above 100 µg/mL; with Botrytis cinerea, 12.5 µg/mL. Moreover, the MIC against Gibberella fujikuroi was above 100 µg/mL; against Aspergillus, above 100 µg/mL; in the assay with Tetrahymena pyriformis W it was 1 to 2 µg/mL; in the assay on Leptosphaeria salvinii it was 50 µg/mL. Besides, the half-maximal inhibitory concentration (IC50) was 3 to 4 µg/mL in assay [1], 1 µg/mL in assay [2] and 2 to 3 µg/mL in assay [3].

As to `COC1=C(OC)C(=O)C(CCCCCCCCCNC(=O)OCCCOP(=O)([O-])OCC[N+](C)(C)C)=C(C)C1=O` [Example 8, 3-[N-(9-(2,3-Dimethoxy-6-methyl-1,4-benzoquinon-5-yl)nonyl)carbamoyloxy]propyl 2-trimethylammonioethyl phosphate], in the assay with Tetrahymena pyriformis W, the MIC turned out to be 40 µg/mL.

Consider `CCCCCCCCCCCCCCCCCCNC(=O)OCC(COP(=O)([O-])OCC[N+](C)(C)C)OC` (stereo not drawn) [Example 11, 3-(N-n-Octadecylcarbamoyloxy)-2-methoxypropyl 2-trimethylammonioethyl phosphate], for which the zone of inhibition at 2000 µg/mL in the assay with Cryptococcus neoformans lay in the range of 12 to 20 mm. The same molecule displayed an MIC in the assay with Tetrahymena pyriformis W of 2 to 4 µg/mL. In addition, the IC50 in [2] (setting [4]) was 0.6 µg/mL.

`CCCCCCCCCCCCCCCCCCNC(=O)OCC(COP(=O)([O-])OCC[n+]1ccccc1)OC` (stereo not drawn) [Example 12, 3-(N-n-Octadecylcarbamoyloxy)-2-methoxypropyl 2-pyridinioethyl phosphate]: in the assay with Cryptococcus neoformans, the zone of inhibition at 2000 µg/mL is 12 to 20 mm. The MIC with Tetrahymena pyriformis W came to 4 µg/mL. The molecule also gave an IC50 in assay [2] (setting [4]) of 1 µg/mL.

As to `CCCCCCCCCCCCCCCCCCNC(=O)OCC(COP(=O)([O-])OCC[n+]1ccsc1)OC` (stereo not drawn) [Example 13, 3-(N-n-Octadecylcarbamoyloxy)-2-methoxypropyl 2-thiazolioethyl phosphate], in the assay with Cryptococcus neoformans, the zone of inhibition at 2000 µg/mL lay in the range of 12 to 20 mm. For the same molecule, in the assay on Tetrahymena pyriformis W, the MIC lay in the range of 2 to 4 µg/mL.

In the assay on Cryptococcus neoformans, `CCCCCCCCCCCCCCCCCCNC(=O)OCCOP(=O)([O-])OCC[N+](C)(C)C` [Example 15, 2-(N-Octadecylcarbamoyloxy)ethyl 2-trimethylammonioethyl phosphate] showed a zone of inhibition at 2000 µg/mL of 12 to 20 mm. This molecule also came in with an MIC in the assay with Tetrahymena pyriformis W of 1 to 2 µg/mL. This molecule also displayed a half-maximal inhibitory concentration (IC50) in assay [2] (setting [4]) of 2.3 µg/mL.

Regarding `CCC=CCC=CCC=CCCCCCCCNC(=O)OCCCOP(=O)([O-])OCC[N+](C)(C)C` [Example 17, 3-(N-8,11,14-Heptadecatrienylcarbamoyloxy)propyl 2-trimethylammonioethyl phosphate], in the assay with Cryptococcus neoformans, the zone of inhibition at 2000 µg/mL was above 20 mm. Further, the MIC is 100 µg/mL in the assay on Brewer's yeast; 25 µg/mL against Cochliobolus miyabeanus; 25 µg/mL in the assay on Pyricularia oryzae; 50 µg/mL in the assay with Penicillium; 100 µg/mL in the assay with Red yeast; 12.5 µg/mL in the assay with Botrytis cinerea. The MIC against Gibberella fujikuroi was 50 µg/mL; in the assay on Aspergillus, 50 µg/mL; with Tetrahymena pyriformis W it was at most 1 µg/mL; against Leptosphaeria salvinii, 50 µg/mL. This molecule registered an IC50 in assay [2] (setting [4]) of 2 µg/mL.

On to `CCCCC/C=C\C/C=C\CCCCCCCNC(=O)OCCCOP(=O)([O-])OCC[N+](C)(C)C` [Example 20], for which the zone of inhibition at 2000 µg/mL in the assay with Cryptococcus neoformans lay within 12 to 20 mm. For the same molecule, the MIC in the assay on Tetrahymena pyriformis W was determined as 2 µg/mL (≈ 3.86 µM). Further, in [2] (setting [4]), the 50% inhibitory concentration (IC50) turned out to be 4.8 µg/mL (≈ 9.25 µM).

Regarding `CCCCC/C=C\C/C=C\CCCCCCCNC(=O)OCCOP(=O)([O-])OCC[N+](C)(C)C` [Example 21, 2-[8,11(Z,Z)-Heptadecadienylcarbamoyloxy]ethyl 2-trimethylammonioethyl phosphate], the zone of inhibition at 2000 µg/mL in the assay with Cryptococcus neoformans lay in the range of 9 to 11 mm. The molecule also came in with an MIC with Tetrahymena pyriformis W of 2 µg/mL.

`CCCCC/C=C\C/C=C\CCCCCCCNC(=O)OCCCOP(=O)(O)OCCN` [Example 22, 3-[8,11(Z,Z)-Heptadecadienylcarbamoyloxy]propyl 2-aminoethyl phosphate]: in the assay on Cryptococcus neoformans, the zone of inhibition at 2000 µg/mL was in the range of 9 to 11 mm. The MIC with Tetrahymena pyriformis W is at most 1 µg/mL. The molecule also displayed a half-maximal inhibitory concentration (IC50) in [2] (setting [4]) of 4.3 µg/mL.

Take `CCCCCCCCCCCCCNC(=O)OCCCOP(=O)([O-])OCC[N+](C)(C)C` [Example 23, 3-(N-Tridecylcarbamoyloxy)propyl 2-trimethylammonioethyl phosphate]: the zone of inhibition at 2000 µg/mL in the assay with Cryptococcus neoformans lay in the range of 12 to 20 mm. Moreover, the MIC was determined as 12.5 µg/mL against Brewer's yeast; 12.5 µg/mL in the assay on Cochliobolus miyabeanus; 6.25 µg/mL against Pyricularia oryzae; 12.5 µg/mL with Penicillium; 12.5 µg/mL in the assay on Red yeast; 6.25 µg/mL in the assay with Botrytis cinerea. Further, the MIC in the assay on Gibberella fujikuroi was 25 µg/mL; with Aspergillus, 12.5 µg/mL; with Tetrahymena pyriformis W, at most 0.1 µg/mL; against Leptosphaeria salvinii, 12.5 µg/mL.

`CCCCCCCCCCCCCCNC(=O)OCC(COP(=O)(O)OCCN)OC` (stereo not drawn) [Example 25, 3-(N-Tetradecylcarbamoyloxy)-2-methoxypropyl 2-aminoethyl phosphate] displayed a zone of inhibition at 2000 µg/mL in the assay with Cryptococcus neoformans above 20 mm. The MIC is 25 µg/mL in the assay with Brewer's yeast; above 100 µg/mL against Cochliobolus miyabeanus; 6.25 µg/mL against Pyricularia oryzae; 25 µg/mL in the assay with Penicillium; 50 µg/mL against Red yeast; 6.25 µg/mL in the assay with Botrytis cinerea. The MIC in the assay on Gibberella fujikuroi was 50 µg/mL; against Aspergillus it was 25 µg/mL; in the assay on Tetrahymena pyriformis W, at most 1 µg/mL; in the assay with Leptosphaeria salvinii, 100 µg/mL. Besides, the IC50 in [2] is 2 to 3 µg/mL.

Molecule `CCCCCCCCCCCCCCNC(=O)OCC(COP(=O)([O-])OCC[N+](C)(C)C)OC` (stereo not drawn) [Example 26, 3-(N-Tetradecylcarbamoyloxy)-2-methoxypropyl 2-trimethylammonioethyl phosphate] gave a zone of inhibition at 2000 µg/mL with Cryptococcus neoformans of 12 to 20 mm. For the same molecule, the MIC with Brewer's yeast (Brewer's yeast, 1% glucose bouillon agar, read-out: MIC) stood at 6.25 µg/mL; with Cochliobolus miyabeanus, 12.5 µg/mL; with Pyricularia oryzae, 3.12 µg/mL; against Penicillium it was 12.5 µg/mL; with Red yeast it was 25 µg/mL; against Botrytis cinerea, 3.12 µg/mL. The MIC with Gibberella fujikuroi came to 12.5 µg/mL; in the assay on Aspergillus, 12.5 µg/mL; against Tetrahymena pyriformis W it was 0.2 µg/mL; in the assay with Leptosphaeria salvinii (Leptosphaeria salvinii, 1% glucose bouillon agar, read-out: MIC) it was 6.25 µg/mL. Besides, the IC50 in assay [2] was in the range of 2 to 3 µg/mL.

Consider `CCCCCCCCCCNC(=O)OCC(COP(=O)(O)OCCN)OC` (stereo not drawn) [Example 28, 3-(N-Decylcarbamoyloxy)-2-methoxypropyl 2-aminoethyl phosphate], for which the zone of inhibition at 2000 µg/mL with Cryptococcus neoformans was below 9 mm. The MIC in the assay on Tetrahymena pyriformis W was 2 µg/mL.

In the case of `CCCCCCCCCCNC(=O)OCC(COP(=O)([O-])OCC[N+](C)(C)C)OC` (stereo not drawn) [Example 29, 3-(N-Decylcarbamoyloxy)-2-methoxypropyl 2-trimethylammonioethyl phosphate], the zone of inhibition at 2000 µg/mL in the assay on Cryptococcus neoformans was in the range of 9 to 11 mm. Moreover, in the assay on Tetrahymena pyriformis W, the MIC came to 2 µg/mL.

The molecule `CCCCCCCCCCCCNC(=O)OCCCOP(=O)([O-])OCC[N+](C)(C)C` [Example 31, 3-N-Dodecylcarbamoyloxypropyl 2-trimethylammonioethyl phosphate] registered a zone of inhibition at 2000 µg/mL in the assay with Cryptococcus neoformans of 12 to 20 mm. The MIC with Brewer's yeast was 12.5 µg/mL; in the assay with Cochliobolus miyabeanus it was 12.5 µg/mL; in the assay on Pyricularia oryzae it was 12.5 µg/mL; in the assay on Penicillium it was 12.5 µg/mL; against Red yeast, 25 µg/mL; in the assay with Botrytis cinerea it was 12.5 µg/mL. Moreover, the MIC against Gibberella fujikuroi is 50 µg/mL; in the assay on Aspergillus, 12.5 µg/mL; in the assay on Tetrahymena pyriformis W, at most 1 µg/mL; against Leptosphaeria salvinii, 25 µg/mL.

Regarding `CCCCCCCCCCCCNC(=O)OCCCOP(=O)(O)OCCN` [Example 32], the zone of inhibition at 2000 µg/mL in the assay on Cryptococcus neoformans is 12 to 20 mm. Moreover, the MIC in the assay with Tetrahymena pyriformis W is at most 1 µg/mL.

`CCCCCCCCCCCCCCNC(=O)OCCCOP(=O)([O-])OCC[N+](C)(C)C` [Example 36, 3-N-Tetradecylcarbamoyloxypropyl 2-trimethylammonioethyl phosphate] came in with a zone of inhibition at 2000 µg/mL with Cryptococcus neoformans above 20 mm. The MIC in the assay with Brewer's yeast was 6.25 µg/mL; with Cochliobolus miyabeanus, 25 µg/mL; against Pyricularia oryzae, 3.12 µg/mL; against Penicillium, 12.5 µg/mL; in the assay with Red yeast, 25 µg/mL; against Botrytis cinerea it was 12.5 µg/mL. The MIC in the assay with Gibberella fujikuroi is 12.5 µg/mL; against Aspergillus it was 12.5 µg/mL; in the assay on Tetrahymena pyriformis W, at most 1 µg/mL; with Leptosphaeria salvinii, 6.25 µg/mL.

(Values after patent US4565865A, “Phospholipid carbamates” (Takeda Chemical Industries, Ltd., priority 1980, dated 1986).)
